Laboratory results published in patent US20230277553A1, “THERAPEUTIC COMPOSITION OF CURE-PRO COMPOUNDS FOR TARGETED DEGRADATION OF BET DOMAIN PROTEINS, AND METHODS OF MAKING AND USAGE” (CORNELL UNIVERSITY, priority 2020, published 2023).
Entries after “also recorded” stand apart in the source; their conditions may differ.

Key:
Type in all cases: cell-based
BRD4 [1] = molecular target: T1, BRD4 (Homo sapiens, UniProt O60885); test: CURE-PRO-mediated BRD4 degradation, Western blot, HeLa cells; design: endogenous in cells; host or cells: HeLa; conditions: 24 h
Method in brief: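 HeLa cells treated 24 h with compounds in DMSO (1-10 μM, 10 μM or 100 μM each; paired monomers combined 1:1), optional 15-min pretreatment with pomalidomide, VHL298, Nutlin3a (10 μM) or MG-132/carfilzomib (1 μM). RIPA lysates, 10-20 μg protein immunoblotted for BRD4 with β-actin, ECL detection.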

BRD4 [2] = molecular target: T1, BRD4; test: Summary of BRD4 degradation by CURE-PRO pairs, estimated from Western Blot or WES (Proteinsimple); design: endogenous in cells; conditions: Table 1; CRBN ligand, second drawing (8047)
From the text: A black check mark indicates efficacy of 30% to 70% or higher protein degradation.

caspase 3/7 = test: Caspase-Glo 3/7 assay, Namalwa cells; conditions: 24 hours, 1:1 with 8047
Experimental: Caspase-glo® assay (Promega) was conducted following the manufacturer's recommendations. Cells were seeded at a density of 5000 cells/well in a white 96 well plates (Corning, #3917) in a total volume of 100 μl with respective monomers, combinations of BRD ligands together with E3 ligase ligands or vehicle control treatment. After a 24 h incubation, 100 μl of the […] substrate was added per well and luminescence was read on a Spectramax M5 (Molecular Devices).
Namalwa cells (5×104) were treated for 24 hours with the compounds solubilized in DMSO. FIG. 57 is a bar graph depiction of fold increase of apoptosis assessed via caspase 3/7 activity using the Caspase-glo assay (Promega) described above.
Molm-13 (FIG. 76A) or Namalwa (FIG. 76B) cells (5×10^4) were treated for 24 hours with the compounds solubilized in DMSO in white 96 well plates (10 nM-10 μM solubilized in DMSO). FIG. 76 is a bar graph depiction of fold increase of apoptosis assessed via caspase 3/7 activity using the Caspase-glo assay (Promega) described above.

Namalwa cells = test: CellTiter-Glo cell viability, Namalwa cells; conditions: 72 hours, 1:1 with 8047, 10 nM-10 μM each
Experimental: CellTiter-Glo® 2.0 Cell Viability Assay (Promega) was carried out following the manufacturer's recommendations. Cells were seeded at a density of 1000 cells/well in a white 96 well plates (Corning, #3917) in a total volume of 100 μl with respective monomers, combinations of BRD ligands together with E3 ligase ligands or vehicle control treatment. After a 72 h incubation, 100 ul of the CellTiter-Glo® substrate was added per well and luminescence was read on a Spectramax M5 (Molecular Devices). Dose-response curves were generated using Graphpad Prism software.
Namalwa cells (1×104) were treated for 72 hours with the compounds solubilized in DMSO. Compounds were added at 10 nM-10 μM each. Cellular viability was determined using the CellTiter-Glo® Luminescent Cell Viability Assay (Promega) described above. FIG. 56 depicts the CURE-PRO-mediated loss of cellular viability for the BRD-E72 monomer (JQ1 derivatives comprising of boronic acid linkers), and the CRBN ligand, 8047 (a pomalidomide derivative comprising diol linkers) combined in a 1:1 ratio.

BRD4 [3] = molecular target: T1, BRD4; test: CURE-PRO-mediated BRD4 degradation, WES (ProteinSimple), HeLa cells; design: endogenous in cells; host or cells: HeLa; conditions: 10 μM each, 4-24 h with washout after 4 h, or 100 nM-10 μM
Experimental: All cell lines were purchased from ATCC or DSMZ and grown at 37° C. with 5% CO2. Human HeLa cells were cultured in complete growth medium (Dulbecco's modified Eagle's medium (DMEM) supplemented with 10% FBS); MCF7 cells were cultured in complete growth medium (Dulbecco's modified Eagle's medium (DMEM) supplemented with 10% FBS and 0.01 mg/ml human recombinant insulin (Sigma Aldrich); Namalwa and MOLM-13 cells were cultured in complete growth medium (RPMI 1640 medium supplemented with 10% FBS); MV-4-11 were cultured in complete growth medium (Iscove's Modified Dulbecco's medium, supplemented with 10% FBS); HCT116 cells were cultured in complete growth medium (McCoy's 5a Medium supplemented with 10% FBS). For cellular degradation of BRD4 studies, cells were seeded in a 12-well plate at 70-80% confluency, allowed to attach overnight, and incubated with the indicated compounds for the indicated time. When indicated, a 15-minute pretreatment with 10 μM pomalidomide, 10 μM VHL298, 10 μM Nutlin3a, 1 μM MG-132 or 1 μM Carfilzomib was performed before the addition of CURE-PROs. For washout studies, after CURE-PRO treatment, media was aspirated and incubated with complete medium for the indicated time before lysis.
Anti-BRD4 (13440, 1:1,000 dilution for Western Blot and 1:25 dilution for ProteinSimple); Anti-BRD2 (5848 1:1,000 dilution for Western Blot and 1:25 dilution for ProteinSimple); β-Actin (3700, 1:2,000 dilution for Western Blot), β-Actin (4970, 1:50 dilution for ProteinSimple) anti-mouse IgG-HRP, and anti-rabbit IgG-HRP antibodies were purchased Cell Signaling Technology. Anti-GAPDH (600-401-A33, 1:100 dilution for ProteinSimple) was purchased from Rockland Immunochemicals, Inc. Anti-BRD3 (sc-81202, 1:200 dilution for Western Blot) was purchased from Santa Cruz Biotechnology.
WES Simple analysis was performed on WES system (ProteinSimple-Biotechne) according to the manufacturer's instructions. Total protein concentrations of cell lysates were determined by the Pierce BCA kit (Thermo Fisher). 3 μL of 0.3 μg/μL of the protein lysate was loaded onto a 12- to 230-kDa WES assay plate (ProteinSimple) where 300 nL sample was withdrawn through a capillary, subjected to electrophoretic separation of proteins by size, and followed by the simultaneous, HRP-based detection of proteins using the Anti-Rabbit Detection Module (Proteinsimple: #DM-001). The electropherograms were checked then the automatic peak detection was manually corrected if it was required.
HeLa cells (2.5×10^6) were treated for 4-24 hours with the compounds solubilized in DMSO. After 4 hours, indicated points were washed and cells were left in full growth media. Compounds were added at 10 μM each. […]

CCNC(=O)C[C@@H]1N=C(c2ccc(Cl)cc2)c2cc(-c3cccc(B(O)O)c3)ccc2-n2c(C)nnc21 [BRD-E72, (3-((4S)-6-(4-chlorophenyl)-4-(2-(ethylamino)-2-oxoethyl)-1-methyl-4H-benzo[f][1,2,4]triazolo[4,3-a][1,4]diazepin-8-yl)phenyl)boronic acid]
BRD4 degradation, BRD ligand with pomalidomide (no 8047) (BRD4 [1]; 10 μM): failed to induce BRD4 degradation | BRD4 degradation, BRD ligand alone (BRD4 [1]; BRD monomer alone, Western blot): no change in expression | Degradation of BRD4 in combination with CRBN ligand [drawing 371] (BRD4 [2]): ✓ (A black check mark indicates efficacy of 30% to 70% or higher protein degradation) | Caspase 3/7 activation, co-dosed with CRBN ligand 8047 (caspase 3/7): demonstrates activation of caspase 3/7; also recorded: marked caspase activation | Loss of cell viability, co-dosed with CRBN ligand 8047 (Namalwa cells): increase in the loss of viability compared to monomer treatment alone; also recorded: marked loss in cell viability | BRD4 degradation, co-dosing with CRBN ligand 8047 (WES) (BRD4 [3]): marked BRD4 degradation after 4h with sustained degradation for up to 8h after drugs are washed out
